# Measured values from patent US12384808B2, “Modulators of TNF-α activity” (Forward Therapeutics, Inc., priority 2022, dated 2025).
# pIC50: −log10 of the molar value.
# Molecular target: TNFα (Homo sapiens, UniProt P01375)
# Assay: TNFα Induced HEK Blue Cellular Assay
# Format: cell-based
# Conditions: not given
# Outline: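 IC50 fitted with a 4-parameter logistic model from % inhibition, normalised to DMSO controls with and without stimulation. Readout: QUANTI-Blue SEAP at 620 nm after 24 h, 37 °C exposure to TNFα (100 pg/ml final) and test compound at […]–0.5 nM final.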
# Chain of TNFα (P01375 77-233 limits assumed): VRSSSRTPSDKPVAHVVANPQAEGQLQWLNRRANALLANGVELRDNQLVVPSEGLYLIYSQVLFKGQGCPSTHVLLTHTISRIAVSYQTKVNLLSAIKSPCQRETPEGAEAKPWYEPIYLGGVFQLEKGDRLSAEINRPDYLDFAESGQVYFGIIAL
row,SMILES,pIC50
1,"[2H]C([2H])([2H])N1C(=O)c2cccc(OC(F)F)c2[C@H]2C[C@@H]1c1nc3ccc(-c4ccc(CP(=O)(OC)OC)c(F)c4)cc3n12 [Example 136, dimethyl (4-((7R,14R)-1-(difluoromethoxy)-6-(methyl-d3)-5-oxo-5,6,7,14-tetrahydro-7,14-methanobenzo[f]benzo[4,5]imidazo[1,2-a][1,4]diazocin-11-yl)-2-fluorobenzyl)phosphonate]",> 7.00

# Same assay, conditions: HEK Blue TNFα reporter cells, TNFα 100 pg/ml, 24 hrs at 37° C., secreted alkaline phosphatase (QUANTI-Blue) read at 620 nm; read-out: IC50 value
row,SMILES,pIC50
1,"[2H]C([2H])([2H])N1C(=O)c2cccc(OC(F)F)c2[C@H]2C[C@@H]1c1nc3ccc(-c4ccc(C(O)P(C)(C)=O)cc4)cc3n12 (stereo partly drawn) [Example 84, (7R,14R)-1-(difluoromethoxy)-11-(4-((dimethylphosphoryl)(hydroxy)methyl)phenyl)-6-(methyl-d3)-6,7-dihydro-7,14-methanobenzo[f]benzo[4,5]imidazo[1,2-a][1,4]diazocin-5(14H)-one]",> 7.00
2,"[2H]C([2H])([2H])N1C(=O)c2cccc(O)c2[C@H]2C[C@@H]1c1nc3ccc(-c4cc(F)c(P(C)(C)=O)cc4F)cc3n12 [Example 71, (7R,14R)-11-(4-(dimethylphosphoryl)-2,5-difluorophenyl)-1-hydroxy-6-(methyl-d3)-6,7-dihydro-7,14-methanobenzo[f]benzo[4,5]imidazo[1,2-a][1,4]diazocin-5(14H)-one]",4.52 to 5.00
3,"[2H]C([2H])([2H])N1C(=O)c2cccc(OC(F)F)c2[C@H]2C[C@@H]1c1nc3cc(F)c(-c4ccc(P(C)(C)=O)cc4)cc3n12 [Example 64, (7R,14R)-1-(difluoromethoxy)-11-(4-(dimethylphosphoryl)phenyl)-10-fluoro-6-(methyl-d3)-6,7-dihydro-7,14-methanobenzo[f]benzo[4,5]imidazo[1,2-a][1,4]diazocin-5(14H)-one]",6.00 to 7.00
4,"CN1C(=O)c2cccc(OC(F)F)c2[C@H]2C[C@@H]1c1nc3ccc(-c4ccc(CP(C)(C)=O)c(F)c4)cc3n12 [Example 79, (7R,14R)-1-(difluoromethoxy)-11-(4-((dimethylphosphoryl)methyl)-3-fluorophenyl)-6-methyl-6,7-dihydro-7,14-methanobenzo[f]benzo[4,5]imidazo[1,2-a][1,4]diazocin-5(14H)-one]",> 7.00
5,"[2H]C([2H])([2H])N1C(=O)c2cccc(OC(F)F)c2[C@H]2C[C@@H]1c1nc3ccc(-c4ccc(P(C)(C)=O)c(C(F)F)c4)cc3n12 [Example 103, (7R,14R)-1-(difluoromethoxy)-11-(3-(difluoromethyl)-4-(dimethylphosphoryl)phenyl)-6-(methyl-d3)-6,7-dihydro-7,14-methanobenzo[f]benzo[4,5]imidazo[1,2-a][1,4]diazocin-5(14H)-one]",> 7.00
6,"CN1C(=O)c2cccc(OC(F)F)c2[C@H]2C[C@@H]1c1nc3ccc(-c4ccc(OCP(C)(C)=O)cc4)cc3n12 [Example 38, (1R,11R)-18-(difluoromethoxy)-5-{4-[(dimethylphosphoryl)methoxy]phenyl}-12-methyl-2,9,12-triazapentacyclo[9.8.1.0^{2,10}.0^{3,8}.0^{14,19}]icosa-3(8),4,6,9,14(19),15,17-heptaen-13-one]",> 7.00
7,"CN1C(=O)c2cccc(OC(F)F)c2[C@H]2C[C@@H]1c1nc3ccc(-c4ccc(NP(C)(C)=O)cc4)cc3n12 [Example 50, (1R,11R)-18-(difluoromethoxy)-5-{4-[(dimethylphosphoryl)amino]phenyl}-12-methyl-2,9,12-triazapentacyclo[9.8.1.0^{2,10}.0^{3,8}.0^{14,19}]icosa-3(8),4,6,9,14(19),15,17-heptaen-13-one]",> 7.00
8,"[2H]C([2H])([2H])N1C(=O)c2cccc(OC(F)F)c2[C@H]2C[C@@H]1c1nc3ccc(-c4ccc(P(=O)(CC)CC)c(F)c4)cc3n12 [Example 125, (7R,14R)-11-(4-(diethylphosphoryl)-3-fluorophenyl)-1-(difluoromethoxy)-6-(methyl-d3)-6,7-dihydro-7,14-methanobenzo[f]benzo[4,5]imidazo[1,2-a][1,4]diazocin-5(14H)-one]",> 7.00
9,"CN1C(=O)c2cccc(OC(F)F)c2[C@H]2C[C@@H]1c1nc3ccc(-c4ccc(NCP(C)(C)=O)nc4)cc3n12 [Example 23, (1R,11R)-18-(difluoromethoxy)-5-(6-{[(dimethylphosphoryl)methyl]amino}pyridin-3-yl)-12-methyl-2,9,12-triazapentacyclo[9.8.1.0^{2,10}.0^{3,8}.0^{14,19}]icosa-3(8),4,6,9,14(19),15,17-heptaen-13-one]",> 7.00
10,"CCN1C(=O)c2cccc(OC(F)F)c2[C@H]2C[C@@H]1c1nc3ccc(-c4ccc(P(C)(C)=O)c(F)c4)cc3n12 [Example 45, (1R,11R)-18-(difluoromethoxy)-5-[4-(dimethylphosphoryl)-3-fluorophenyl]-12-ethyl-2,9,12-triazapentacyclo[9.8.1.0^{2,10}.0^{3,8}.0^{14,19}]icosa-3(8),4,6,9,14(19),15,17-heptaen-13-one]",> 7.00
11,"[2H]C([2H])([2H])N1C(=O)c2cccc(OC(F)F)c2[C@H]2C[C@@H]1c1nc3ccc(-c4ccc(CP(C)(C)=O)c(F)c4F)cc3n12 [Example 76, (7R,14R)-1-(difluoromethoxy)-11-(4-((dimethylphosphoryl)methyl)-2,3-difluorophenyl)-6-(methyl-d3)-6,7-dihydro-7,14-methanobenzo[f]benzo[4,5]imidazo[1,2-a][1,4]diazocin-5(14H)-one]",> 7.00
12,"[2H]C([2H])([2H])N1C(=O)c2cccc(OC(F)F)c2[C@H]2C[C@@H]1c1nc3ccc(-c4ccc(P(C)(C)=O)c(F)c4)c(F)c3n12 [Example 139, (7R,14R)-1-(difluoromethoxy)-11-(4-(dimethylphosphoryl)-3-fluorophenyl)-12-fluoro-6-(methyl-d3)-6,7-dihydro-7,14-methanobenzo[f]benzo[4,5]imidazo[1,2-a][1,4]diazocin-5(14H)-one]",> 7.00
13,"[2H]C([2H])([2H])N1C(=O)c2cccc(OC(F)F)c2[C@H]2C[C@@H]1c1nc3ccc(-c4cc(F)c(P(C)(C)=O)c(C#N)c4)cc3n12 [Example 133, 5-((7R,14R)-1-(difluoromethoxy)-6-(methyl-d3)-5-oxo-5,6,7,14-tetrahydro-7,14-methanobenzo[f]benzo[4,5]imidazo[1,2-a][1,4]diazocin-11-yl)-2-(dimethylphosphoryl)-3-fluorobenzonitrile]",> 7.00

# Further lines, results first:
row,pIC50,SMILES
1,> 7.00,"CP(C)(=O)Cc1c(F)cc(-c2ccc3nc4n(c3c2)[C@@H]2C[C@H]4NC(=O)c3cccc(OC(F)F)c32)cc1F [Example 81, (7R,14R)-1-(difluoromethoxy)-11-(4-((dimethylphosphoryl)methyl)-3,5-difluorophenyl)-6,7-dihydro-7,14-methanobenzo[f]benzo[4,5]imidazo[1,2-a][1,4]diazocin-5(14H)-one]"
2,> 7.00,"CN1C(=O)c2cccc(OC(F)F)c2[C@H]2C[C@@H]1c1nc3ccc(-c4cc(F)c(P(C)(C)=O)cc4F)cc3n12 [Example 56, (1R,11R)-18-(difluoromethoxy)-5-[4-(dimethylphosphoryl)-2,5-difluorophenyl]-12-methyl-2,9,12-triazapentacyclo[9.8.1.0^{2,10}.0^{3,8}.0^{14,19}]icosa-3(8),4,6,9,14(19),15,17-heptaen-13-one]"
3,> 7.00,"CN1C(=O)c2cccc(OC(F)F)c2[C@H]2C[C@@H]1c1nc3ccc(-c4cnc(NCP(C)(C)=O)c(F)c4)cc3n12 [Example 16, (1R,11R)-18-(difluoromethoxy)-5-(6-{[(dimethylphosphoryl)methyl]amino}-5-fluoropyridin-3-yl)-12-methyl-2,9,12-triazapentacyclo[9.8.1.0^{2,10}.0^{3,8}.0^{14,19}]icosa-3(8),4,6,9,14(19),15,17-heptaen-13-one]"
4,> 7.00,"CCP(=O)(CC)c1ccc(-c2ccc3nc4n(c3c2)[C@@H]2C[C@H]4NC(=O)c3cccc(OC(F)F)c32)cc1F [Example 51, (1R,11R)-5-[4-(diethylphosphoryl)-3-fluorophenyl]-18-(difluoromethoxy)-2,9,12-triazapentacyclo[9.8.1.0^{2,10}.0^{3,8}.0^{14,19}]icosa-3(8),4,6,9,14(19),15,17-heptaen-13-one]"
5,> 7.00,"[2H]C([2H])([2H])N1C(=O)c2cccc(OC(F)F)c2[C@H]2C[C@@H]1c1nc3ccc(-c4ccc(P(C)(C)=O)cc4)cc3n12 [Example 65, (7R,14R)-1-(difluoromethoxy)-11-(4-(dimethylphosphoryl)phenyl)-6-(methyl-d3)-6,7-dihydro-7,14-methanobenzo[f]benzo[4,5]imidazo[1,2-a][1,4]diazocin-5(14H)-one]"
6,6.00 to 7.00,"CP(C)(=O)c1c(F)cc(-c2ccc3nc4n(c3c2)[C@@H]2C[C@H]4NC(=O)c3cccc(OC(F)F)c32)cc1F [Example 35, (1R,11R)-18-(difluoromethoxy)-5-[4-(dimethylphosphoryl)-3,5-difluorophenyl]-2,9,12-triazapentacyclo[9.8.1.0^{2,10}.0^{3,8}.0^{14,19}]icosa-3(8),4,6,9,14(19),15,17-heptaen-13-one]"
7,> 7.00,"[2H]C([2H])([2H])N1C(=O)c2cccc(OC(F)F)c2[C@H]2C[C@@H]1c1nc3ccc(-c4ccc(C(O)P(=O)(CC)CC)cc4)cc3n12 (stereo partly drawn) [Example 101, (7R,14R)-11-(4-((diethylphosphoryl)(hydroxy)methyl)phenyl)-1-(difluoromethoxy)-6-(methyl-d3)-6,7-dihydro-7,14-methanobenzo[f]benzo[4,5]imidazo[1,2-a][1,4]diazocin-5(14H)-one]"
8,> 7.00,"[2H]C([2H])([2H])N1C(=O)c2cccc(OC(F)F)c2[C@H]2C[C@@H]1c1nc3ccc(-c4cc(C)c(P(C)(C)=O)c(F)c4)cc3n12 [Example 106, (7R,14R)-1-(difluoromethoxy)-11-(4-(dimethylphosphoryl)-3-fluoro-5-methylphenyl)-6-(methyl-d3)-6,7-dihydro-7,14-methanobenzo[f]benzo[4,5]imidazo[1,2-a][1,4]diazocin-5(14H)-one]"
